Results on one sequence are retold here after paper PMC10606834, “Is the Neuropeptide PEN a Ligand of GPR83?” (International Journal of Molecular Sciences, 2023).

Test [1] has as its system GPR83 and deletion variant GPR83del (HEK293 clones; wild-type HEK293 as comparison). The test can be described thus: Intracellular calcium mobilization, HEK293 cells. It counts as cell-based, human. How it is done: As activation of many GPCRs is coupled to calcium mobilization from intracellular stores, GPR83 was probed for ligand-dependent calcium release. Wild-type HEK293 cells and HEK293 clones overexpressing either full-length GPR83 or the N-terminal deletion variant GPR83del were exposed to buffer or one of two independent synthesis batches (PEN #1 and PEN #2) of the neuropeptide PEN, while calcium indicator fluorescence was recorded. […] Calcium release was also tested in a second cell line, osteosarcoma U2OS cells, using various stably expressing clones. […] Therefore, HEK293 cells transfected with Gα16 were employed to investigate a potential GPR83-dependent calcium mobilization with PEN. […] A number of GPCRs show ligand-independent basal calcium activity. However, in an experiment comparing basal calcium levels in wild-type HEK293 cells and in HEK293 clones overexpressing four different variants of GPR83, they were not found to be different (Figure 2D).
Figure 2 Investigation of ligand-dependent and ligand-independent intracellular calcium mobilization. (A) Wild-type HEK293 cells and HEK293 cell clones overexpressing either GPR83 or the deletion variant GPR83del were incubated with either buffer or the specified ligand (10 µM PEN or co mix = 100 µM carbachol, 100 µM ATP, 40 µM dimaprit, or 50 µM ionomycin). (B) Calcium indicator fluorescence intensity traces over 60 s of various U2OS cell clones overexpressing untagged or HA-tagged GPR83 or the deletion variant GPR83del before and after the addition of buffer or ligand (co mix as in (A) or 50 µM ionomycin or 10 µM PEN). […]
Cells were seeded at 50,000 cells/well in a poly-D-lysine coated 96-well black well/clear bottom plate (BD Falcon, Franklin Lakes, NJ, USA) and cultured overnight. […] Fluorescence was recorded with the fluorescence imaging plate reader CellLux (Perkin Elmer, Waltham, MA, USA) simultaneously in all wells at an excitation wavelength of 488 nm and emission wavelength of 510 nm in 1.5 s intervals over a period of 4 min. Fluorescence data were generated in duplicate, and experiments were repeated at least two times.
(Calcium flux is commonly read through the fluorescence of an indicator in the cells.)

The subject of test [2] is ERK1/2 phosphorylation in HEK293 cells overexpressing GPR83 or GPR83del. In words: ERK1/2 phosphorylation (immunoblot), GPR83 cells. It counts as cell-based, human. From the text:
(§1) Apart from G protein-mediated second messenger signaling via Ca^2+ and cAMP, GPCR stimulation may also lead to activation of β-arrestin and phosphorylation of extracellular signal-regulated kinases 1/2 (ERK1/2). Immunoblot analysis was employed to investigate ligand-dependent phosphorylation of ERK1/2 in HEK293 cells overexpressing GPR83 or the deletion variant GPR83del as well as in wild-type HEK293 cells.
(§2) Figure 4 Ligand-dependent phosphorylation of ERK1/2 and β-arrestin (TANGO) assay. (A) Immunoblot detection of phosphorylated (upper blot) and total (lower blot) ERK1/2 in lysates of HEK293 wild-type cells and in HEK293 cells overexpressing GPR83 or GPR83del. (B) Quantification (mean ± SD of n = 2 independent experiments) of chemiluminescent readout of the immunoblots shown in (A). (C) TANGO assay for ligand-induced β-arrestin activity in HTLA cells overexpressing GPR83 (relative light units, RLU). (D) TANGO assay for ligand-induced β-arrestin activity in HTLA cells overexpressing bradykinin receptor BDKBR2.
(§3) 4.7. ERK1/2 Phosphorylation Assay
Effects of GPCR ligands on MAPK signaling were assessed with Western blot analysis of lysates from stimulated cells. The ERK1/2 activation assay was performed as described before. Briefly, 50,000 cells per well were seeded onto adherent 6-well plates and cultured until cells were 80% confluent. After incubation with ligands (10 µM PEN #1 and 100 ng/mL EGF or 200 nM PMA in 0.1% FCS/DMEM) for 15 min, cells were lysed using 200 µL/well cell lysis buffer (100 mM Tris-HCl pH 8.8, 1% SDS) and protease inhibitors (cOmplete, Roche, Basel, Switzerland) on ice for one hour. Immunolabeling was realized using the rabbit monoclonal primary antibody anti-phospho-ERK1/2 Thr^202/Tyr^204 (#4370, Cell Signaling Technologies, Danvers, MA, USA, 1:2000), or anti-total ERK1/2 (#05-1152; Millipore, Burlington, VT, USA; 1:2000), respectively. Blots were analyzed using densitometric quantification using Image Lab Software v4.1 (Bio-Rad).
A general note: Immunoblotting shows a protein as a band on a membrane.

The test system of test [3] is HEK293 cells. Particulars: some batches of HEK293 cells; ref [10]; cited from earlier work. From the text:
(§4) While the earlier study employed CHO cells from Cricetulus griseus and Neuro2A cells from Mus musculus overexpressing human GPR83 [10], this study used human HEK293 and U2OS c ...

Test [4] concerns GPR83 (CHO and Neuro2A cells). Particulars: CHO and Neuro2A cells overexpressing human GPR83; ref [10]; cited from earlier work.
Text: as §4

In test [5] the test system is ERK1/2 phosphorylation in wild-type HEK293 cells. In words: ERK1/2 phosphorylation (immunoblot), wild-type cells. Particulars: 10 µM PEN #1, 15 min, n = 2. It counts as cell-based, human.
Text: as §1, §2, §3
Effects of GPCR ligands on MAPK signaling were assessed with Western blot analysis of lysates from stimulated cells. The ERK1/2 activation assay was performed as described before. […] Blots were analyzed using densitometric quantification using Image Lab Software v4.1 (Bio-Rad).

Entries after “also recorded” stand apart in the source; their conditions may differ.

Turning to “AADHDVGSELPPEGVLGALLRV [PEN, batch #1 synthesized, batch #2 purchased from Phoenix Pharmaceuticals]”, the calcium signal entry in test [1] (10 µM PEN, co mix = 100 µM carbachol, 100 µM ATP, 40 µM dimaprit, 50 µM ionomycin, HEK293 wild-type, GPR83 or GPR83del clones, Fluo4-AM fluorescence, compared with buffer, duplicate, repeated at least two times) is listed as “PEN did not”. The “Ca2+ signal above background” value in test [1] (two synthesis batches of PEN, confirmed in HEK293 and U2OS cells, full-length or truncated GPR83 (Figure 2A–C)) is “none of two synthesis batches of PEN from different sources was found to yield a signal above background”. Further, the “phosphorylation of ERK1/2” value in test [2] (10 µM PEN #1, 100 ng/mL EGF or 200 nM PMA, 15 min, HEK293 overexpressing GPR83 or GPR83del as well as wild-type HEK293, n = 2 independent experiments) is reported as “substantially induced phosphorylation of ERK1/2”. Besides, the “phosphorylation of ERK1/2, GPR83 or GPR83del cells versus wild-type” value in test [2] (10 µM PEN #1, 15 min, n = 2) was “equally strong ERK1/2 phosphorylation in wild-type HEK293 cells as well as in HEK293 cells overexpressing GPR83 or GPR83del”. In test [3], the “response of HEK293 cells” value was “had not responded to PEN”. Also, the “GPR83-mediated cAMP signaling” value in test [4] is “Modification of GPR83-mediated cAMP signaling by PEN has been previously reported”. In addition, the “phosphorylation of ERK1/2, wild-type HEK293 versus GPR83 or GPR83del cells” value in test [5] is listed as “equally strong ERK1/2 phosphorylation in wild-type HEK293 cells as well as in HEK293 cells overexpressing GPR83 or GPR83del; also recorded: also demonstrated a similar phosphorylation after incubation with PEN”.
